Test results published in ChEMBL document CHEMBL1140050, “Designed glycopeptides with different beta-turn types as synthetic probes for the detection of autoantibodies as biomarkers of multiple sclerosis” (J Med Chem, 2008).
pIC50: −log10 of the molar value. Residues, ends and D or L forms follow the SMILES beside them. *: point of attachment. NH(β-D-Glc) = OC[C@H]1O[C@@H](N*)[C@H](O)[C@@H](O)[C@@H]1O

Experiment: Binding affinity to anti-CSF114 (Glc) antibody in serum from multiple sclerosis patient by ELISA

Row | Compound | pIC50
1 | CC(=O)N[C@@H](CCC(=O)O)C(=O)N[C@@H](CCCNC(=N)N)C(=O)N1CCC[C@H]1C(=O)N[C@@H](CC(=O)N[C@@H]1O[C@H](CO)[C@@H](O)[C@H](O)[C@H]1O)C(=O)N[C@@H](Cc1cnc[nH]1)C(=O)N[C@H](C(=O)N[C@H](C(N)=O)C(C)C)[C@@H](C)O (Ac-ERPD(NH(β-D-Glc))HTV-NH2) | 7.83
2 | CSCC[C@H](NC(=O)[C@H](Cc1c[nH]c2ccccc12)NC(=O)CNC(=O)[C@H](Cc1ccc(O)cc1)NC(=O)[C@@H]1CCCN1C(=O)[C@H](C)NC(=O)[C@H](CC(C)C)NC(=O)[C@H](Cc1ccccc1)NC(=O)[C@@H](NC(=O)[C@H](CO)NC(=O)[C@H](Cc1cnc[nH]1)NC(=O)CNC(=O)[C@H](CC(=O)N[C@@H]1O[C@H](CO)[C@@H](O)[C@H](O)[C@H]1O)NC(=O)[C@H](CCCNC(=N)N)NC(=O)[C@H](CCC(=O)O)NC(=O)[C@@H](NC(=O)[C@H](CCCNC(=N)N)NC(=O)[C@@H]1CCCN1C(=O)[C@@H](N)[C@@H](C)O)C(C)C)C(C)C)C(=O)N[C@H](C(=O)N[C@@H](CCCCN)C(=O)O)C(C)C | 6.86
3 | CSCC[C@H](NC(=O)[C@H](Cc1c[nH]c2ccccc12)NC(=O)CNC(=O)[C@H](Cc1ccc(O)cc1)NC(=O)[C@@H]1CCCN1C(=O)[C@H](C)NC(=O)[C@H](CC(C)C)NC(=O)[C@H](Cc1ccccc1)NC(=O)[C@@H](NC(=O)[C@@H](NC(=O)[C@H](Cc1cnc[nH]1)NC(=O)[C@H](CC(=O)N[C@@H]1O[C@H](CO)[C@@H](O)[C@H](O)[C@H]1O)NC(=O)[C@@H]1CCCN1C(=O)[C@H](CCCNC(=N)N)NC(=O)[C@H](CCC(=O)O)NC(=O)[C@@H](NC(=O)[C@H](CCCNC(=N)N)NC(=O)[C@@H]1CCCN1C(=O)[C@@H](N)[C@@H](C)O)C(C)C)[C@@H](C)O)C(C)C)C(=O)N[C@H](C(=O)N[C@@H](CCCCN)C(=O)O)C(C)C (H-TPRVERPD(NH(β-D-Glc))HTVFLAPYGWMVK-OH) | 7.93
4 | CSCC[C@H](NC(=O)[C@H](Cc1c[nH]c2ccccc12)NC(=O)CNC(=O)[C@H](Cc1ccc(O)cc1)NC(=O)[C@@H]1CCCN1C(=O)[C@H](C)NC(=O)[C@H](CC(C)C)NC(=O)[C@H](Cc1ccccc1)NC(=O)[C@@H](NC(=O)[C@@H](NC(=O)[C@H](Cc1cnc[nH]1)NC(=O)[C@H](CC(=O)N[C@@H]1O[C@H](CO)[C@@H](O)[C@H](O)[C@H]1O)NC(=O)CNC(=O)[C@H](CCCNC(=N)N)NC(=O)[C@H](CCC(=O)O)NC(=O)[C@@H](NC(=O)[C@H](CCCNC(=N)N)NC(=O)[C@@H]1CCCN1C(=O)[C@@H](N)[C@@H](C)O)C(C)C)[C@@H](C)O)C(C)C)C(=O)N[C@H](C(=O)N[C@@H](CCCCN)C(=O)O)C(C)C (H-TPRVERGD(NH(β-D-Glc))HTVFLAPYGWMVK-OH) | 7.52
